Test results taken from the supplement of paper PMC7017272.
± gives the standard deviation of the averaged measurements.

Experiments:
UT-SCC-24A = experiment: relative IC50 (midpoint of the fitted curve; maximal inhibition may be below 50%); higher = less potent; conditions: treatment time: 3 days
Method: (§1)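 HNSCC cell lines (500 cells/well, 384-well) were cultured on plastic, on top of (2D) or embedded (3D) in Matrigel or human leiomyoma matrix Myogel (500 ug/mL; Myogel 3D mixed with rat collagen I). Cells were treated for 3 days with 5 ten-fold concentrations of each drug, and viability was read by CellTiter-Glo. Viability was normalised to DMSO (0% inhibition) and 100 uM benzethonium chloride (100% inhibition) controls and fitted with the FIMM DSRT pipeline to give IC50 (nM), maximal % inhibition and the drug sensitivity score (DSS). Suffixes _1/_2/_3 on drug names are replicates.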

UT-SCC-106A = experiment: relative IC50 (midpoint of the fitted curve; maximal inhibition may be below 50%); higher = less potent; conditions: treatment time: 3 days
Summary of the method: (§2)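 HPV-negative HNSCC cell lines were seeded at 500 cells/well in 384-well plates on plastic, on Matrigel- or Myogel-coated wells (500 µg/mL), or embedded in Matrigel or Myogel plus rat collagen I. Compounds were given at five 10-fold concentrations for 3 days, and viability was read by CellTiter-Glo 2.0 luminescence. Signals were normalised to vehicle (0.1% DMSO) and cell-killing control wells. Percent-inhibition dose–response curves were fitted in the FIMM pipeline to derive IC50, maximal inhibition and drug sensitivity score.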

UT-SCC-73 = experiment: as above; conditions: culture condition: embedded in Matrigel; treatment time: 3 days
Summary of the method: as §2

UT-SCC-44 = experiment: as above; conditions: treatment time: 3 days
Summary of the method: as §2

UT-SCC-42A [1] = experiment: as above; conditions: treatment time: 3 days
Summary of the method: as §2

UT-SCC-14 = experiment: as above; conditions: treatment time: 3 days
Summary of the method: as §2

UT-SCC-28 = experiment: as above; conditions: treatment time: 3 days
Summary of the method: as §2

UT-SCC-81 = experiment: as above; conditions: treatment time: 3 days
Summary of the method: as §2

UT-SCC-8 = experiment: as above; conditions: treatment time: 3 days
Summary of the method: as §2

UT-SCC-40 = experiment: as above; conditions: treatment time: 3 days
Summary of the method: as §2

UT-SCC-24B = experiment: as above; conditions: treatment time: 3 days
Summary of the method: as §2

UT-SCC-42B = experiment: as above; conditions: treatment time: 3 days
Summary of the method: as §2

UT-SCC-42A [2] = experiment: maximal % inhibition of viability relative to DMSO; higher = stronger effect; conditions: culture condition: embedded in Matrigel; treatment time: 3 days
Method: as §1, with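 “DMSO” for “DMSO (0% inhibition)”, “and” for “and 100 uM”, “chloride” for “chloride (100% inhibition)”, “DSS.” for “the drug sensitivity score (DSS).”, “_1/_2/_3” for “_1/_2/_3 on drug names”, “replicates. Only inhibition-mode (IC50) fits are kept.” for “replicates.”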

[3] = culture condition: embedded in Matrigel
[4] = culture condition: on top of Matrigel
[5] = culture condition: plastic 2D (no matrix)
[6] = culture condition: embedded in Myogel + collagen I
[7] = culture condition: on top of Myogel

Structure (SMILES): CN(C)C/C=C/C(=O)Nc1cc2c(Nc3ccc(F)c(Cl)c3)ncnc2cc1O[C@H]1CCOC1 [Afatinib]
- relative IC50 (UT-SCC-24A; [3]): 8.03 nM
- relative IC50 (UT-SCC-24A; [4]): 9.88 nM
- relative IC50 (UT-SCC-24A; [5]): 12.8 nM
- relative IC50 (UT-SCC-106A; [3]): 8.12 nM
- relative IC50 (UT-SCC-106A; [6]): > 989 nM
- relative IC50 (UT-SCC-106A; [4]): 7.76 nM
- relative IC50 (UT-SCC-106A; [5]): 11.7 nM
- relative IC50 (UT-SCC-73): 32 nM
- relative IC50 (UT-SCC-44; [6]): > 989 nM
- relative IC50 (UT-SCC-44; [5]): > 989 nM
- relative IC50 (UT-SCC-42A [1]; [3]): 28.9 nM
- relative IC50 (UT-SCC-42A [1]; [4]): 11.4 nM
- relative IC50 (UT-SCC-42A [1]; [7]): 21.2 nM
- relative IC50 (UT-SCC-42A [1]; [5]): 19 nM
- relative IC50 (UT-SCC-14; [3]): 30.7 nM
- relative IC50 (UT-SCC-14; [4]): 39.6 nM
- relative IC50 (UT-SCC-14; [7]): 47.4 nM
- relative IC50 (UT-SCC-14; [5]): 40.8 nM
- relative IC50 (UT-SCC-28; [3]): > 989 nM
- relative IC50 (UT-SCC-28; [6]): > 989 nM
- relative IC50 (UT-SCC-81; [3]): 6.81 nM
- relative IC50 (UT-SCC-81; [4]): 15.3 nM
- relative IC50 (UT-SCC-81; [5]): 35.7 nM
- relative IC50 (UT-SCC-8; [3]): 19.7 nM
- relative IC50 (UT-SCC-8; [4]): 21 nM
- relative IC50 (UT-SCC-8; [5]): 21.6 nM
- relative IC50 (UT-SCC-40; [3]): 21.3 nM
- relative IC50 (UT-SCC-40; [4]): 24.2 nM
- relative IC50 (UT-SCC-40; [5]): 33.1 nM
- relative IC50 (UT-SCC-24B; [3]): 31.2 nM
- relative IC50 (UT-SCC-24B; [4]): 23 nM
- relative IC50 (UT-SCC-24B; [5]): 12.7 nM
- relative IC50 (UT-SCC-42B; [3]): 17.3 nM
- relative IC50 (UT-SCC-42B; [4]): 17.7 nM
- relative IC50 (UT-SCC-42B; [5]): 27.5 nM
- maximal % inhibition of viability (UT-SCC-42A [2]): 51.6 ± 4%
